This note sets out measurements from paper PMC4059350 (DNA repair, 2014).

Where a chain is given by its changes, count along the chain named.

For test [1], the target named is T1, Msh2-Msh3 (Saccharomyces cerevisiae, UniProt P25336+P25847).
T1 sequence (P25847 1-964): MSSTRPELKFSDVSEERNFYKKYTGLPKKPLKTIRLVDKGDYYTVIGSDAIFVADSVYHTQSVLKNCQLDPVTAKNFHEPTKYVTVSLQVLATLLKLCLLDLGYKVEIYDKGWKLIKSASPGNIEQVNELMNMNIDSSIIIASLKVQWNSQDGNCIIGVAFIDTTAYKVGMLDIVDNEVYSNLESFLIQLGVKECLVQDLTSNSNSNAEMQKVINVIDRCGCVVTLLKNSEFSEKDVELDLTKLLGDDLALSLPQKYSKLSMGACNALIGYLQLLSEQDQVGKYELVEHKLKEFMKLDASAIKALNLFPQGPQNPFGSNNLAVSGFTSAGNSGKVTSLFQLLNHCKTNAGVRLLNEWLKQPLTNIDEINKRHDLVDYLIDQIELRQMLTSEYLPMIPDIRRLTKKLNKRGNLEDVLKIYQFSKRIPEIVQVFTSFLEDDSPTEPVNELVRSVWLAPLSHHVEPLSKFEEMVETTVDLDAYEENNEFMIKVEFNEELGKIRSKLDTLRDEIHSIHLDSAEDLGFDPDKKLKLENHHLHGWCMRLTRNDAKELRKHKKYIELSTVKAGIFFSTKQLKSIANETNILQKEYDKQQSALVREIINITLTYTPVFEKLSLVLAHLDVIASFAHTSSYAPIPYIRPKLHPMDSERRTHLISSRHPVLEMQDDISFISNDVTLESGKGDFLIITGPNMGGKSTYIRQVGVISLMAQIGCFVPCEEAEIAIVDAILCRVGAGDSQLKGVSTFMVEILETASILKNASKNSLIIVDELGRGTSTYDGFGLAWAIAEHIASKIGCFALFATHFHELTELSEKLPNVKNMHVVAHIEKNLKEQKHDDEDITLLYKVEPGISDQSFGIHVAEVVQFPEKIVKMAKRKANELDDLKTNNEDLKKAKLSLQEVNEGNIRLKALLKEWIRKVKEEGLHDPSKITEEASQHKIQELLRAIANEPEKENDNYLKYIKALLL
T1 sequence (P25336 1-1018): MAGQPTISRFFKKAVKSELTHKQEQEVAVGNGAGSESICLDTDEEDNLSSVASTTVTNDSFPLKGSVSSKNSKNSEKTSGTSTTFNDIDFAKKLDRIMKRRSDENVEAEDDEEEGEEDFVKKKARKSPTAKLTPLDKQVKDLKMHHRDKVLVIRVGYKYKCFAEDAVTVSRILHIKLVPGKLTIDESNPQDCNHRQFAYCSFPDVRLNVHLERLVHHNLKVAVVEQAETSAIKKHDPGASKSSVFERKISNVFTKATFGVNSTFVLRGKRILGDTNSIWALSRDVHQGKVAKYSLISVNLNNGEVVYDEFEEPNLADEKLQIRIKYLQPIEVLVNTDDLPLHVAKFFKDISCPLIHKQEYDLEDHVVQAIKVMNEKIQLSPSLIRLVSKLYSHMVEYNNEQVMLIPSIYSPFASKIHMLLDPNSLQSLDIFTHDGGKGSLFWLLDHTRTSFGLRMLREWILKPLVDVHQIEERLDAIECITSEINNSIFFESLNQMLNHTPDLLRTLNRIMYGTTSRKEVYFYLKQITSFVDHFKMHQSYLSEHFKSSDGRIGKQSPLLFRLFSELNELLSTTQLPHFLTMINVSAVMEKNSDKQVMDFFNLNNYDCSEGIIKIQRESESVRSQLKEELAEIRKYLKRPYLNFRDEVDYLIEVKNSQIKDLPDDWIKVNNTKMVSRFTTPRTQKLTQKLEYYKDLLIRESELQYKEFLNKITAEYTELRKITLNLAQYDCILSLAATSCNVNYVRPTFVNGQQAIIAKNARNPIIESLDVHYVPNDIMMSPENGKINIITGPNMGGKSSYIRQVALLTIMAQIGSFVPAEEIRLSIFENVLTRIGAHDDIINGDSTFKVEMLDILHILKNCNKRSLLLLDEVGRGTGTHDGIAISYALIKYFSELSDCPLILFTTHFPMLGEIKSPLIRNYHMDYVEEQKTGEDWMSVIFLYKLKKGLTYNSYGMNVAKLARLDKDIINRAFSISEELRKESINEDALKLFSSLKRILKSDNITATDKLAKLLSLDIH
Nature of the test: nitrocellulose filter binding, competition with […]-ATPγS after ADP pre-binding. As to conditions: no DNA; 0.5 mM ADP, 8 μM ATPγS, 50 nM protein.

The target in test [2] is T1, Msh2-Msh3. Nature of the test: ATPγS titration into steady-state coupled ATPase assay. The format is biochemical.
Test [3] has as its target T2, Msh2-Msh3 (Saccharomyces cerevisiae, UniProt P25336+P25847, P25336:Y942A).
T2 sequence (P25847 1-964): T1 sequence (P25847 1-964)
T2 sequence (P25336 1-1018 Y942A): T1 sequence (P25336 1-1018) with Y942A
The test is described as above. The format is biochemical.

With `Nc1ncnc2c1ncn2[C@@H]1O[C@H](COP(=O)(O)OP(=O)(O)O)[C@@H](O)[C@H]1O` [ADP], the “fraction of ATPγS bound relative to no ADP, 30 s” value at Msh2-Msh3 [1] came to 0.54 ± 0.15 fraction.
One may read the IC50 as the point on the concentration scale where inhibition reaches its midpoint. The low end stands for inhibition by little substance, the high end for a need for much substance. In the case of `Nc1ncnc2c1ncn2[C@@H]1O[C@H](CO[P@](=O)(O)O[P@](=O)(O)O[P@@](=O)(O)S)[C@@H](O)[C@H]1O` [ATPγS], the IC50 at Msh2-Msh3 [2] was found to be 6.3 mM; on Msh2-Msh3 [3], 0.8 mM.
